This passage reports EC50 and IC50 results from patent US20250268869A1, “METHODS OF USING A (THIAZOLYL)BENZENESULFONAMIDE DERIVATIVE” (Cyteir Therapeutics, Inc., priority 2022, published 2025).

Some results are limits rather than exact numbers.

For orientation: EC50 means the midpoint of the concentration-response curve. The term IC50 denotes the point on the concentration scale where inhibition reaches its midpoint.

In one test the test system is Daudi (Burkitt Lymphoma) cells. The test is described as follows: Intracellular Lactate Accumulation Assay (Lactate-Glo). Format: cell-based. The conditions noted are these: Homo sapiens, 2h treatment, read-out: LactateGlo EC50. As for the experimental part: Intracellular lactate accumulation after a 2h treatment with compounds of the present invention was measured in Daudi (Burkitt Lymphoma) cells using the Lactate-Glo Assay (Promega).
Daudi cells were seeded at 7,500 cells per well in 150 μL of growth medium (RPMI-1640 with 2 mM GlutaMAX+10% FBS) in clear, 96-well, flat-bottom microplates, and incubated overnight (37° C., 5% CO2). Compounds of the present invention were added using an INTEGRA VIAFLO 96 (8 point, 3-fold serial dilution, top concentration 1, 10, or 20 μM, 0.4% final DMSO concentration). After a 2h incubation (37° C., 5% CO2) microplates containing cells were washed twice with 150 μL ice-cold PBS, resuspended in 25 μL ice-cold PBS containing 12.5 μL 0.6N HCl, and placed on a microplate shaker for 5 min to lyse the cells. Following lysis, 12.5 μL 1M Trizma base was added to neutralize the suspension, and microplates were returned to the microplate shaker for 1 min. Plates were sealed and stored at −20° C. until further processing. On the day of the assay, microplates were thawed for 45 min at room temperate and 50 μL Lactate Detection Reagent (prepared as specified by manufacturer) was added to each well. Microplates were placed on a plate shaker for 1 min and incubated at room temperature for 1h. Luminescence was measured using a BioTek Cytation 5 Multi-Mode Reader. Curve fitting and calculation of EC50 was performed using GraphPad Prism.
Regarding `CCNS(=O)(=O)c1cc(Nc2ccc(CC)nn2)ccc1-c1cnc([C@H]2CC[C@H](NC(=O)OC(C)C)CC2)s1` [Compound 157, isopropyl trans-N-[4-[5-[4-[(6-ethylpyridazin-3-yl)amino]-2-(ethylsulfamoyl)phenyl]thiazol-2-yl]cyclohexyl]carbamate], the EC50 was less than 50 nM.

In the case of `CC(C)OC(=O)Nc1ccc(-c2cnc(C3CCC(NC(=O)OC(C)C)CC3)s2)c(S(=O)(=O)NCCN(C)C)c1` (stereo not shown) [Compound 175], the EC50 was in the range of 1000 to 5000 nM.

Regarding `CC(C)OC(=O)NC1CCC(c2ncc(-c3ccc(N(C)C(=O)NCc4ccccc4)cc3S(=O)(=O)NC(C)(C)CO)s2)CC1` (stereo not shown) [Compound 176], the EC50 was more than 5000 nM.

For the compound `CCNS(=O)(=O)c1cc(Nc2ccn[nH]2)ccc1-c1cnc([C@H]2CC[C@H](NC(=O)OC(C)C)CC2)s1` [Compound 121, isopropyl trans-N-[4-[5-[2-(ethylsulfamoyl)-4-[(1H-pyrazol-5-yl)amino]phenyl]thiazol-2-yl]cyclohexyl]carbamate], the EC50 is less than 50 nM.

The target in a further test is T1, human MCT1 (Homo sapiens, UniProt P53985).
T1 construct: host or cells: MDCK-II cells, transiently co-transfected
T1 sequence (P53985 1-500): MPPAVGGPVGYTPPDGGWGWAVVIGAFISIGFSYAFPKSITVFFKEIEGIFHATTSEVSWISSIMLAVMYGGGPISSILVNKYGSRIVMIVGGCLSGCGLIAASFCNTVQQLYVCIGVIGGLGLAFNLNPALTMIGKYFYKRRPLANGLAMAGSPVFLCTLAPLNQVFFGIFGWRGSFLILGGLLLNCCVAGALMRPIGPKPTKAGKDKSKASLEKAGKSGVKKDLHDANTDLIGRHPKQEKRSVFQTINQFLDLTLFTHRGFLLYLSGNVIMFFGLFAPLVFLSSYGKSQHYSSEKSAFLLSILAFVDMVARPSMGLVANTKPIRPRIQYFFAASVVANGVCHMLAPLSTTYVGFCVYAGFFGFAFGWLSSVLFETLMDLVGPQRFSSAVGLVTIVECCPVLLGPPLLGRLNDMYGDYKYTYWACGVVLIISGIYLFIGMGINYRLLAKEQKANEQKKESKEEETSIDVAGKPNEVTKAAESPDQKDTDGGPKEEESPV
T1 sequence (P35613 140-385 partner limits assumed): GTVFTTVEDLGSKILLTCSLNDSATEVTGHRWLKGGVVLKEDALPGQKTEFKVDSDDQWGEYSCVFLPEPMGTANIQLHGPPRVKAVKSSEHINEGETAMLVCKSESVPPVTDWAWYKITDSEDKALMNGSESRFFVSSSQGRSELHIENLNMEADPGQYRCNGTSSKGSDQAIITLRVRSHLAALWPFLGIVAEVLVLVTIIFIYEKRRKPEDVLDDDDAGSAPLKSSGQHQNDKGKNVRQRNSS
Put plainly: MCT1 Transport Inhibition Assay. The class given is cell-based. As to conditions: MDCK-II cells overexpressing human MCT1 (with CD147), TPGA transport, LC-MS/MS; read-out: BioIVT MCT1 Transporter IC50. The procedure:
Inhibition of MCT1 transport after treatment with compounds of the present invention was measured in MDCK-II cells that overexpress human MCT1 by quantifying the transport of 2-Thiophene-glycoxylic acid (TPGA) into cells using LC-MS/MS.
MDCK-II cells are seeded at 60,000 cells per well in growth medium (low-glucose DMEM+10% FBS) in 96-well trans-well membrane plates, and incubated overnight (37° C., 5% CO2). Cells were co-transfected with mammalian expression constructs coding for MCT1 and CD147 at a 2:1 ratio or an empty vector control (GFP) and then incubated for 48h (37° C., 5% CO2). Cells were washed 3 times with HBSS and cells were preincubated with inhibitors or vehicle control at room temperature in HBSS for 30 min with orbital shaking (60 rpm). HBSS was aspirated from the wells and replaced with HBSS with 25 mM Bis-Tris pH5.5+inhibitor or vehicle control+500 μM TPGA and incubated for 1 min at room temperature with orbital shaking (60 rpm). Both the apical and basolateral side of the trans-well insert were washed 4 times with ice-cold PBS. Cells were lysed with 60 μL of cell extraction solution, and the amount of TPGA in each well was quantified in triplicate by LC-MS/MS. The MCT1-mediated uptake rate was calculated using the following equation: […]
Percent inhibition for each concentration of inhibitor tested was calculated using the following equation: […]
Curves were fit to the calculated percent inhibition for each inhibitor, and the IC50 representing the concentration of inhibitor at which MCT1 is inhibited by 50% was calculated from this curve.
`Cc1[nH]nc(C(F)(F)F)c1Cc1sc2c(c1C(=O)N1C[C@](C)(O)CO1)c(=O)n(C)c(=O)n2C(C)C` [AZD3965]: the IC50 was in the range of 50 to 150 nM.

In the case of `CCNS(=O)(=O)c1cc(Nc2ccc(CC)nn2)ccc1-c1cnc([C@H]2CC[C@H](NC(=O)OC(C)C)CC2)s1` [Compound 157, isopropyl trans-N-[4-[5-[4-[(6-ethylpyridazin-3-yl)amino]-2-(ethylsulfamoyl)phenyl]thiazol-2-yl]cyclohexyl]carbamate], the IC50 is 50 to 150 nM.

With `O=C(Nc1ccccc1C(=O)O)c1cc(S(=O)(=O)c2ccccc2)ccc1Cl` [BAY8002], the 50% inhibitory concentration (IC50) lay within 50 to 150 nM.
